{"source": "patent US20240285554A1", "about": "“POLYVINYL ALCOHOL COMPOSITIONS AND METHODS OF MAKING AND USING THEM” (Emanate Biomedical, Inc., priority 2023, published 2024)", "key": {"bacteria and fungus": {"test_system": "bacteria and fungus", "test": "Antimicrobial efficacy, choice of preservative concentration", "assay_type": "cell-based", "details": "selected as the suitable preservative concentration", "source_text": "(§1) The CHG concentration of 0.05% w/w was the lowest dose showing strong efficacy against both bacteria and fungus and was therefore selected as the suitable preservative concentration."}, "C. albicans ATCC 10231": {"test_system": "C. albicans ATCC 10231", "test": "Antimicrobial efficacy testing (modified AATCC 100 test)", "assay_type": "cell-based, Candida albicans", "details": "contact time 30 min, study NG17964", "source_text": "as §1"}, "C. tropicalis ATCC 750 [1]": {"test_system": "C. tropicalis ATCC 750", "test": "Antimicrobial efficacy testing (modified AATCC 100 test)", "assay_type": "cell-based, Candida tropicalis", "source_text": "as §1"}, "P. aeruginosa ATCC 9027": {"test_system": "P. aeruginosa ATCC 9027", "test": "Antimicrobial efficacy testing (modified AATCC 100 test)", "assay_type": "cell-based, Pseudomonas aeruginosa", "details": "for Log10 Reduction Compared to Control / Percent Reduction Compared to Control / Average CFU/carrier: P. aeruginosa ATCC 9027, study NG17598-A1; for Average CFU/carrier: limit of detection", "source_text": "as §1"}, "S. aureus ATCC 6538": {"test_system": "S. aureus ATCC 6538", "test": "Antimicrobial efficacy testing (modified AATCC 100 test)", "assay_type": "cell-based, Staphylococcus aureus", "details": "for Log10 Reduction Compared to Control / Percent Reduction Compared to Control / Average CFU/carrier: S. aureus ATCC 6538, study NG17598-A1; for Average CFU/carrier: limit of detection", "source_text": "as §1"}, "[2]": {"test_system": "gram positive bacteria and gram negative bacteria", "test": "Zone of Inhibition (ZOI) testing", "assay_type": "cell-based", "details": "composition with 0.005%, 0.025%, 0.05%, 0.1%, and 0.15% w/w of CHG", "source_text": "as §1"}, "C. tropicalis ATCC 750 [3]": {"test_system": "C. tropicalis ATCC 750", "test": "Antimicrobial efficacy testing (modified AATCC 100 test)", "assay_type": "cell-based, Candida tropicalis", "details": "for Average CFU/carrier / Log10 Reduction Compared to Control / Percent Reduction Compared to Control: C. tropicalis ATCC 750, contact time 30 min, study NG17964; for efficacy: tested against Candida albicans and Candida tropicalis"}, "oral pathogenic bacteria": {"test_system": "oral pathogenic bacteria", "details": "cited from earlier work"}, "[4]": {"details": "C. tropicalis ATCC 750, CHG Conc 0.05 % w/w, contact time 30 min, study NG17964"}, "[5]": {"details": "CHG Conc 0.005 % w/w, contact time 30 min"}, "[6]": {"details": "CHG Conc 0.1 % w/w, contact time 60 min"}, "[7]": {"details": "CHG Conc 0.1 % w/w, contact time 24 hrs"}}, "data": [{"smiles": "N=C(NCCCCCCNC(=N)NC(=N)Nc1ccc(Cl)cc1)NC(=N)Nc1ccc(Cl)cc1.O=C(O)[C@H](O)[C@@H](O)[C@H](O)[C@H](O)CO.O=C(O)[C@H](O)[C@@H](O)[C@H](O)[C@H](O)CO", "note": "[CHG]", "values": [{"measurement": "lowest dose showing strong efficacy against both bacteria and fungus", "setting": "bacteria and fungus", "result": 0.05, "unit": "% w/w"}, {"measurement": "Average CFU/carrier", "setting": "C. albicans ATCC 10231; CHG Conc 0.005 % w/w", "result": "1.00E+05", "unit": "CFU/carrier"}, {"measurement": "Log10 Reduction Compared to Control", "setting": "C. albicans ATCC 10231; CHG Conc 0.005 % w/w", "result": 0.25}, {"measurement": "Percent Reduction Compared to Control", "setting": "C. albicans ATCC 10231; CHG Conc 0.005 % w/w", "result": 43.52, "unit": "%"}, {"measurement": "Average CFU/carrier", "setting": "C. albicans ATCC 10231; CHG Conc 0.05 % w/w", "result": "2.48E+02", "unit": "CFU/carrier"}, {"measurement": "Log10 Reduction Compared to Control", "setting": "C. albicans ATCC 10231; CHG Conc 0.05 % w/w", "result": 2.86}, {"measurement": "Percent Reduction Compared to Control", "setting": "C. albicans ATCC 10231; CHG Conc 0.05 % w/w", "result": 99.86, "unit": "%"}, {"measurement": "Average CFU/carrier", "setting": "C. albicans ATCC 10231; CHG Conc 0.1 % w/w", "result": "7.50E+00", "unit": "CFU/carrier"}, {"measurement": "Log10 Reduction Compared to Control", "setting": "C. albicans ATCC 10231; CHG Conc 0.1 % w/w", "result": 4.37}, {"measurement": "Percent Reduction Compared to Control", "setting": "C. albicans ATCC 10231; CHG Conc 0.1 % w/w", "result": 99.996, "unit": "%"}, {"measurement": "Log10 Reduction Compared to Control", "setting": "C. tropicalis ATCC 750 [1]; [4]", "result": ">4.46"}, {"measurement": "Percent Reduction Compared to Control", "setting": "C. tropicalis ATCC 750 [1]; [4]", "result": ">99.997", "unit": "%"}, {"measurement": "Average CFU/carrier", "setting": "C. tropicalis ATCC 750 [1]; C. tropicalis ATCC 750, CHG Conc 0.05 % w/w, contact time 30 min, study NG17964, limit of detection", "result": "<5.00E+00^1 CFU/carrier"}, {"measurement": "efficacy", "setting": "C. tropicalis ATCC 750 [1]; tested against Candida albicans and Candida tropicalis, CHG 0.05% w/w", "result": 99.997, "unit": "%"}, {"measurement": "Log10 Reduction Compared to Control", "setting": "P. aeruginosa ATCC 9027; [5]", "result": ">4.43"}, {"measurement": "Percent Reduction Compared to Control", "setting": "P. aeruginosa ATCC 9027; [5]", "result": ">99.996", "unit": "%"}, {"measurement": "Average CFU/carrier", "setting": "P. aeruginosa ATCC 9027; [5]", "result": "<5.00E+00^1 CFU/carrier"}, {"measurement": "Log10 Reduction Compared to Control", "setting": "P. aeruginosa ATCC 9027; [6]", "result": ">4.53"}, {"measurement": "Percent Reduction Compared to Control", "setting": "P. aeruginosa ATCC 9027; [6]", "result": ">99.996", "unit": "%"}, {"measurement": "Average CFU/carrier", "setting": "P. aeruginosa ATCC 9027; [6]", "result": "<5.00E+00^1 CFU/carrier"}, {"measurement": "Log10 Reduction Compared to Control", "setting": "P. aeruginosa ATCC 9027; [7]", "result": ">4.70"}, {"measurement": "Percent Reduction Compared to Control", "setting": "P. aeruginosa ATCC 9027; [7]", "result": ">99.998", "unit": "%"}, {"measurement": "Average CFU/carrier", "setting": "P. aeruginosa ATCC 9027; [7]", "result": "<5.00E+00^1 CFU/carrier"}, {"measurement": "reduction of the concentration of microorganisms", "setting": "P. aeruginosa ATCC 9027; Pseudomonas aeruginosa, CHG 0.05% w/w, after 30 min contact time", "result": "more than 99.99%"}, {"measurement": "reduction of the concentration of the microorganisms", "setting": "P. aeruginosa ATCC 9027; Pseudomonas aeruginosa, CHG 0.1% w/w, after 60 min and 24 hour contact time", "result": "more than 99.99%"}, {"measurement": "Log10 Reduction Compared to Control", "setting": "S. aureus ATCC 6538; [5]", "result": ">4.40"}, {"measurement": "Percent Reduction Compared to Control", "setting": "S. aureus ATCC 6538; [5]", "result": ">99.996", "unit": "%"}, {"measurement": "Average CFU/carrier", "setting": "S. aureus ATCC 6538; [5]", "result": "<5.00E+00^1 CFU/carrier"}, {"measurement": "Log10 Reduction Compared to Control", "setting": "S. aureus ATCC 6538; [6]", "result": ">4.57"}, {"measurement": "Percent Reduction Compared to Control", "setting": "S. aureus ATCC 6538; [6]", "result": ">99.997", "unit": "%"}, {"measurement": "Average CFU/carrier", "setting": "S. aureus ATCC 6538; [6]", "result": "<5.00E+00^1 CFU/carrier"}, {"measurement": "Log10 Reduction Compared to Control", "setting": "S. aureus ATCC 6538; [7]", "result": ">4.58"}, {"measurement": "Percent Reduction Compared to Control", "setting": "S. aureus ATCC 6538; [7]", "result": ">99.997", "unit": "%"}, {"measurement": "Average CFU/carrier", "setting": "S. aureus ATCC 6538; [7]", "result": "<5.00E+00^1 CFU/carrier"}, {"measurement": "reduction of the concentration of microorganisms", "setting": "S. aureus ATCC 6538; Staphylococcus aureus, CHG 0.05% w/w, after 30 min contact time", "result": "more than 99.99%"}, {"measurement": "reduction of the concentration of the microorganisms", "setting": "S. aureus ATCC 6538; Staphylococcus aureus, CHG 0.1% w/w, after 60 min and 24 hour contact time", "result": "more than 99.99%"}, {"measurement": "effect in Zone of Inhibition (ZOI) testing", "setting": "[2]", "result": "showed inhibitory effects"}, {"measurement": "Average CFU/carrier", "setting": "C. tropicalis ATCC 750 [3]; CHG Conc 0.005 % w/w", "result": "2.70E+04", "unit": "CFU/carrier"}, {"measurement": "Log10 Reduction Compared to Control", "setting": "C. tropicalis ATCC 750 [3]; CHG Conc 0.005 % w/w", "result": 0.73}, {"measurement": "Percent Reduction Compared to Control", "setting": "C. tropicalis ATCC 750 [3]; CHG Conc 0.005 % w/w", "result": 81.38, "unit": "%"}, {"measurement": "Log10 Reduction Compared to Control", "setting": "C. tropicalis ATCC 750 [3]; CHG Conc 0.1 % w/w", "result": ">4.46"}, {"measurement": "Percent Reduction Compared to Control", "setting": "C. tropicalis ATCC 750 [3]; CHG Conc 0.1 % w/w", "result": ">99.997", "unit": "%"}, {"measurement": "Average CFU/carrier", "setting": "C. tropicalis ATCC 750 [3]; CHG Conc 0.1 % w/w, limit of detection", "result": "<5.00E+00^1 CFU/carrier"}, {"measurement": "efficacy", "setting": "C. tropicalis ATCC 750 [3]; CHG 0.005% w/w", "result": 81.38, "unit": "%"}, {"measurement": "efficacy", "setting": "C. tropicalis ATCC 750 [3]; CHG 0.1% w/w", "result": 99.997, "unit": "%"}]}, {"smiles": "[H]/N=C(\\N/C(=N/[H])NCCCCCCNC(=N)NC(=N)Nc1ccc(Cl)cc1)Nc1ccc(Cl)cc1", "note": "[Chlorhexidine, chlorhexidine]", "values": [{"measurement": "MIC", "setting": "oral pathogenic bacteria; against oral pathogenic bacteria", "result": 0.0125, "unit": "% w/v"}, {"measurement": "MBC", "setting": "oral pathogenic bacteria; at 10 minutes", "result": 0.5, "unit": "% w/v"}]}]}
